According to article PMC12164026, “Plant-derived nodule-specific cysteine-rich peptides as potent antifungal agents against Cryptococcus neoformans: mechanisms of action, chimeric peptide enhancement, and immunomodulatory effects” (Current Research in Microbial Sciences, 2025):
Converted amounts (≈) assume the structure as drawn. Read-outs that look alike come from different tables or passages of the source. Bridge positions count the residues as written; N and C are the ends. Peptide text beside a SMILES is read from it.

Key:
[1] = system: Cryptococcus neoformans IFM 5844; assay: microbe, parasite or virus in culture; assay type: cell-based; conditions: five-fold diluted YNB + 1 % dextrose, 5 × 10^4 cells/mL, 30 °C, 72 h, OD 620 nm, ≥ 90 % growth inhibition, tested 25 to 0.39 µM, three biological replicates
Description: (§1) The susceptibility of Cryptococcus neoformans IFM 5844 to 20 peptides (Supplementary Table 1) was tested in a widely used synthetic medium to cultivate yeasts (YNB) and in a serum-free medium what is able to support the proliferation of macrophage cells (X-VIVO).
YNB medium: five-fold diluted Difco Yeast Nitrogen Base w/o Amino Acids medium (Becton, Dickinson and Company, Sparks, MD, USA) supplemented with 1 % dextrose
(§2) The minimal inhibitory concentration (MIC) of each peptide was determined by using micro-dilution assay. The C. neoformans suspensions were adjusted to 5 × 10^4 cells/mL concentration in either YNB or X-VIVO medium. A 96-well microtiter plate was prepared by adding 95 µL suspension per well followed by 5 µL of serially two-fold diluted peptide solutions achieving a final volume of 100 µl. The concentration of the peptides ranged from 25 to 0.39 µM. For control samples, 5 µL pure medium was added to the yeast cell suspension instead of peptides. Plates were incubated at 37 °C for 48 h in X-VIVO medium and 30 °C for 72 h in YNB medium. After incubation, optical density was measured at 620 nm using a SPECTROstar Nano plate reader (BMG LabTech, Offenburg, Germany). […] The experiments were carried out in three independent biological replicates.

[2] = system: Cryptococcus neoformans IFM 5844; assay: Minimal fungicidal concentration (MFC) determination, spotting on YPD; assay type: cell-based; conditions: cultures from MIC assays diluted and spotted onto solid YPD, 30 °C, 48 h
Description: Minimal fungicidal concentration (MFC) determination. To assess fungicidal activity, both control and peptide-treated cultures from the MIC assays were diluted 10-fold and 100-fold in sterile distilled water. Five µL from each dilution was then spotted onto solid YPD medium (1 % pepton, 1 % dextrose, 0.5 % yeast extract, 2 % agar). The plates were incubated at 30 °C for 48 h and fungal growth was evaluated. MFC was defined as the lowest peptide concentration at which no visible fungal growth was detected, indicating complete fungicidal activity.

[3] = system: C. neoformans IFM 5844 cells; assay: Cell membrane permeability, calcein-AM assay by flow cytometry; assay type: cell-based, Cryptococcus neoformans; conditions: half-MIC, 2 h, 30 °C, YNB
Description: The effect of the peptides on the cell membrane permeability of C. neoformans IFM 5844 cells was checked by flow cytometry with calcein-AM assay ([Olson, et al., 2001]). Calcein-acetoxymethyl ester (calcein-AM) is a membrane-permeable live-cell dye that, upon entering the cell, is cleaved by intracellular esterases, converting it into calcein, a membrane-impermeable fluorescent marker. The assay was carried out by suspending a total of 1 × 10^7 cells in 100 µl YNB medium containing 20 µg/mL indomethacin (Sigma-Aldrich, Saint Louis, MO, USA) and incubating them at 30 °C for 30 min to inhibit calcein transporters. Following this pre-treatment, membrane-permeable calcein-AM (Invitrogen, Waltham, MA, USA) was added to a final concentration of 5 µg/mL, and the samples were incubated at 30 °C for 3 h allowing the calcein-AM to enter the cells where esterases converted it to fluorescent calcein. After incubation, cells were washed twice with sterile distilled water and subsequently exposed to peptides at half-MIC concentrations in YNB medium for 2 h at 30 °C. Following peptide treatment, cells were washed twice with sterile distilled water, and fluorescence intensity was measured using a FlowSight® flow cytometer (Amnis-EMD Millipore) equipped with a 488-nm excitation laser. Intact cells stained with calcein-AM but not exposed to peptides served as controls. To ensure statistical reliability, four independent experiments were conducted, and fluorescence intensity was recorded from 10,000 cells per sample during each experiment.

[4] = system: Cryptococcus neoformans IFM 5844; assay type: cell-based; conditions: half-diluted X-VIVO 15 medium, 37 °C, 48 h, OD 620 nm, ≥ 90 % growth inhibition, tested 25 to 0.39 µM, three biological replicates
Description: as §1
X-VIVO medium: half-diluted X-VIVO™ 15 cell culture medium (Lonza, Verviers, Belgium).
as §2

[5] = Cryptococcus neoformans, IFM5844, read-out: MIC

Compound | MIC ([1]; read-out: MIC) | fungistatic or fungicide mode of action [2] | MIC [1] | further results
OC(Cn1cncn1)(Cn1cncn1)c1ccc(F)cc1F [Fluconazole, fluconazole, reference compound] | – | – | – | MIC [1, 5]: 12.5 µM
CC[C@H](C)[C@H](NC(=O)[C@H](CCCCN)NC(=O)[C@H](Cc1ccccc1)NC(=O)[C@H](CC(C)C)NC(=O)[C@@H]1CCCN1C(=O)[C@H](CCCCN)NC(=O)[C@H](CCCCN)NC(=O)[C@H](CO)NC(=O)[C@@H](N)CCCCN)C(=O)N[C@@H](C)C(=O)N[C@@H](CCCCN)C(=O)N[C@@H](CS)C(=O)N[C@H](C(=O)N[C@@H](CCC(=O)O)C(=O)N[C@@H](CC(N)=O)C(=O)N[C@H](C(=O)N[C@@H](CS)C(=O)N[C@H](C(=O)N[C@@H](CC(C)C)C(=O)N[C@@H](C)C(=O)N[C@@H](Cc1ccc(O)cc1)C(=O)N[C@@H](CCCCN)C(N)=O)C(C)C)C(C)C)C(C)C [NCR169C17–38W10,20/A] (H-KSKKPLFKIAKCVENVCVLAYK-NH2; N-terminus assumed) | 6.25 µM | fungicidal effect | – | calcein leakage / membrane permeability disruption [3]: highest calcein leakage
CC[C@H](C)[C@H](NC(=O)[C@H](CCCCN)NC(=O)[C@H](Cc1ccccc1)NC(=O)[C@H](CC(C)C)NC(=O)[C@@H]1CCCN1C(=O)[C@H](CCCCN)NC(=O)[C@H](CCCCN)NC(=O)[C@H](CO)NC(=O)[C@@H](N)CCCCN)C(=O)N[C@@H](Cc1c[nH]c2ccccc12)C(=O)N[C@@H](CCCCN)C(=O)N[C@@H](CS)C(=O)N[C@H](C(=O)N[C@@H](CCC(=O)O)C(=O)N[C@@H](CC(N)=O)C(=O)N[C@H](C(=O)N[C@@H](CS)C(=O)N[C@H](C(=O)N[C@@H](CC(C)C)C(=O)N[C@@H](Cc1c[nH]c2ccccc12)C(=O)N[C@@H](Cc1ccc(O)cc1)C(=O)N[C@@H](CCCCN)C(N)=O)C(C)C)C(C)C)C(C)C [NCR169C17–38] (H-KSKKPLFKIWKCVENVCVLWYK-NH2; N-terminus assumed) | 3.12 µM | fungicidal effect | – | calcein leakage / membrane permeability disruption [3]: highest calcein leakage
CC[C@H](C)[C@H](NC(=O)[C@H](CCCCN)NC(=O)[C@H](Cc1ccccc1)NC(=O)[C@H](CC(C)C)NC(=O)[C@@H]1CCCN1C(=O)[C@H](CCCCN)NC(=O)[C@H](CCCCN)NC(=O)[C@H](CO)NC(=O)[C@@H](N)CCCCN)C(=O)N[C@@H](Cc1c[nH]c2ccccc12)C(=O)N[C@@H](CCCCN)C(=O)N[C@H]1CSSC[C@@H](C(=O)N[C@H](C(=O)N[C@@H](CC(C)C)C(=O)N[C@@H](Cc2c[nH]c3ccccc23)C(=O)N[C@@H](Cc2ccc(O)cc2)C(=O)N[C@@H](CCCCN)C(N)=O)C(C)C)NC(=O)[C@H](C(C)C)NC(=O)[C@H](CC(N)=O)NC(=O)[C@H](CCC(=O)O)NC(=O)[C@H](C(C)C)NC1=O [NCR169C17–38ox] (H-KSKKPLFKIWKCVENVCVLWYK-NH2; disulfide 12-17; N-terminus assumed) | 3.12 µM | fungicidal effect | – | –
CC[C@H](C)[C@H](NC(=O)[C@H](CCCCN)NC(=O)[C@H](CCCCN)NC(=O)[C@H](C)NC(=O)[C@H](CC(C)C)NC(=O)[C@H](C)NC(=O)[C@H](C)NC(=O)[C@H](CC(C)C)NC(=O)[C@H](C)NC(=O)[C@H](CCCCN)NC(=O)[C@H](CCCNC(=N)N)NC(=O)[C@H](CCCNC(=N)N)NC(=O)[C@H](CCCNC(=N)N)NC(=O)[C@H](CS)NC(=O)[C@H](Cc1ccc(O)cc1)NC(=O)[C@H](CC(C)C)NC(=O)[C@@H]1CCCN1C(=O)[C@H](CCCNC(=N)N)NC(=O)[C@H](CCCNC(=N)N)NC(=O)[C@H](CS)NC(=O)[C@H](CCC(N)=O)NC(=O)[C@@H](N)CCC(N)=O)C(=O)N[C@@H](CC(C)C)C(N)=O [NCR247C-X2] (H-QQCRRPLYCRRRKALAALAKKIL-NH2; N-terminus assumed) | 0.78 µM | fungicidal effect | – | MIC [4]: 1.56 µM (≈ 4.3 µg/mL); calcein leakage / membrane permeability disruption [3]: highest calcein leakage; proportion of calcein-stained cells ([3]; stained untreated control 75 %, four independent experiments): 8%
CC(C)C[C@H](NC(=O)[C@@H]1CCCN1C(=O)[C@H](CCCNC(=N)N)NC(=O)[C@H](CCCNC(=N)N)NC(=O)[C@H](CS)NC(=O)[C@H](CCC(N)=O)NC(=O)[C@@H](N)CCC(N)=O)C(=O)N[C@@H](Cc1ccc(O)cc1)C(=O)N[C@@H](CS)C(=O)N[C@@H](CCCNC(=N)N)C(=O)N[C@@H](CCCNC(=N)N)C(=O)N[C@@H](CCCNC(=N)N)C(N)=O [NCR247C] (H-QQCRRPLYCRRR-NH2; N-terminus assumed) | 6.25 µM | fungicidal effect | – | calcein leakage / membrane permeability disruption [3]: highest calcein leakage
CC[C@H](C)[C@H](NC(=O)[C@@H]1CCCN1C(=O)[C@@H](NC(=O)[C@H](CS)NC(=O)[C@H](Cc1ccc(O)cc1)NC(=O)[C@H](CO)NC(=O)[C@H](CCCCN)NC(=O)[C@H](CCCNC(=N)N)NC(=O)[C@H](CS)NC(=O)[C@H](CCCNC(=N)N)NC(=O)[C@@H](NC(=O)[C@H](CC(N)=O)NC(=O)[C@H](C)NC(=O)[C@H](CCCNC(=N)N)NC(=O)[C@H](CCCNC(=N)N)NC(=O)[C@H](CC(C)C)NC(=O)[C@H](CCCCN)NC(=O)[C@@H]1CCCN1C(=O)[C@H](CS)NC(=O)[C@H](CC(=O)O)NC(=O)[C@H](CCCCN)NC(=O)[C@H](CC(N)=O)NC(=O)[C@@H](NC(=O)[C@H](CCCCN)NC(=O)[C@H](CS)NC(=O)[C@H](CC(=O)O)NC(=O)[C@H](CO)NC(=O)[C@H](CC(C)C)NC(=O)[C@@H](NC(=O)[C@H](CC(C)C)NC(=O)[C@H](CO)NC(=O)[C@H](Cc1ccccc1)NC(=O)[C@@H](N)Cc1c[nH]cn1)[C@@H](C)CC)[C@@H](C)O)C(C)C)C(C)C)C(N)=O [NCR335C1–33] (H-HFSLILSDCKTNKDCPKLRRANVRCRKSYCVPI-NH2; N-terminus assumed) | – | fungicidal effect | – | –
C[C@@H]1[C@H](O)[C@@H](C)/C=C/C=C/C=C/C=C/C=C/C=C/C=C/[C@H](O[C@@H]2O[C@H](C)[C@@H](O)[C@H](N)[C@@H]2O)C[C@@H]2O[C@](O)(C[C@@H](O)C[C@@H](O)[C@H](O)CC[C@@H](O)C[C@@H](O)CC(=O)O[C@H]1C)C[C@H](O)[C@H]2C(=O)O [amphotericin B, reference compound] | – | – | – | MIC [1, 5]: 1.56 µM
CKTNKDCP [NCR335C9–16, short derivative of NCR335 C-terminal region] | – | – | lacked inhibitory effect | –
FWGQNRNIMKHRGQ [NCR335N16–29, 14 amino acid-long N-terminal fragment of NCR335] | – | – | ineffective | –
HFSLILSD [NCR335C1–8, short derivative of NCR335 C-terminal region] | – | – | lacked inhibitory effect | –
HFSLILSDCKTNKDCP [NCR335C1–16, short derivative of NCR335 C-terminal region] | – | – | lacked inhibitory effect | –
KLRRANVRCRK [NCR335C17–27, further truncation of NCR335C17–33] | – | – | lacked inhibitory effect | –
RLNTTFRPLNFKMLRFWGQNRNIMKHRGQKVHFSLILSDCKTNKDCPKLRRANVRCRKSYCVPI [NCR335, 64-amino-acid-long cationic M. truncatula NCR peptide] | 3.12 µM | – | – | –
